Assay results as given in the METLIN SMRT retention time set (Domingo-Almenara et al. 2019).

Assay: gradient 5% acetonitrile 3 min, to 50% in 2 min, to 85% in 15 min, held 3 min, 100 µL/min
Settings: column: Zorbax Extend-C18 2.1 x 50 mm; eluents: water / acetonitrile, 0.1% formic acid
Method in brief: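 Retention times come from adduct peaks that were picked computationally and then checked by hand. The standards, pure and pooled in mixtures of ~100 molecules, were run on a Zorbax Extend-C18 column (2.1 × 50 mm, 1.8 μm) at 100 μL/min with water and acetonitrile, each with 0.1% formic acid. Detection was by quadrupole time-of-flight mass spectrometry in positive and negative ionization mode, with a dead volume of 40 μL and a dwell volume of 900 μL.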

Cc1ccc(-c2cc3n(n2)CCCN(C(=O)Cc2ccccc2F)C3)cc1
RP-LC retention time: 939 s

COc1cccc(CNC(=O)CN2C(=O)NC(c3ccccc3Cl)C3=C2COC3=O)c1 (stereo not drawn)
RP-LC retention time: 780 s

Cc1cc(CNC(=O)C2CCCC2)c(C)o1
RP-LC retention time: 762 s

FC(F)(F)Oc1ccccc1CN1CCC[C@H]1c1nc(C2CCOCC2)n[nH]1
RP-LC retention time: 597 s

O=S(=O)(Nc1cccc(Cl)c1)c1c[nH]c2ncccc12
RP-LC retention time: 765 s

COc1ccc(OCC(=O)Nc2nc(C)cc(C)c2-c2noc(C)n2)cc1
RP-LC retention time: 783 s

CCn1cc(C2=CCN(S(=O)(=O)c3cccc(C)c3)CC2)c2cccnc21
RP-LC retention time: 1040 s

Cc1cc(C)cc(NC(=O)Cc2nnc(-c3ccc4ncccc4c3)o2)c1
RP-LC retention time: 786 s

Cc1ccc(NS(=O)(=O)c2cc3n(c2)CCCN(C)C3=O)c(F)c1
RP-LC retention time: 684 s

COC(=O)c1cc2n(n1)CC(C)(C(=O)NC1CCCCC1)N(c1cccc(F)c1)C2=O (stereo not drawn)
RP-LC retention time: 737 s

Cc1c(F)cccc1NS(=O)(=O)c1cc(-c2nc(C(C)(C)C)cs2)cs1
RP-LC retention time: 1310 s

CC(C)(NS(=O)(=O)c1ccc(Oc2ccc(F)cc2)cc1)C(=O)NO
RP-LC retention time: 804 s

O=C1[C@H]2CN(Cc3cccc(OC(F)(F)F)c3)C[C@H]2C(=O)N1CCc1ccccc1
RP-LC retention time: 1000 s

O=C(NCCc1csc(-c2cccs2)n1)C1CCN(C(=O)c2cccc(F)c2)CC1
RP-LC retention time: 768 s

CCN1CCN(S(=O)(=O)c2cccc(-c3nc(-c4ccccc4)no3)c2)CC1
RP-LC retention time: 722 s

CCC(=O)N1c2ccc(S(=O)(=O)N3CCCCC3)cc2CC1C(=O)NC1CCCCC1 (stereo not drawn)
RP-LC retention time: 895 s

O=C(c1cc(S(=O)(=O)N2CCCC(C(=O)N3CCCCC3)C2)c[nH]1)N1CCCC1 (stereo not drawn)
RP-LC retention time: 716 s

O=C1CC(c2cc(F)cc(F)c2)Cc2nc(N3CCN(c4ccc(F)cc4)CC3)ncc21 (stereo not drawn)
RP-LC retention time: 719 s

O=C(c1ccc(Br)o1)N1CCN(c2cc(-c3ccccc3)[nH]n2)CC1
RP-LC retention time: 796 s

CC1CCCN(C(=O)CN(C)S(=O)(=O)c2ccc3c(c2)CCCC(=O)N3)C1 (stereo not drawn)
RP-LC retention time: 718 s

O=C(Nc1ccccc1)N1CC(c2nc3ccccc3[nH]2)C1
RP-LC retention time: 548 s

CCC1CCCCN1CCCNC(=O)C1CCCN(c2ncnc3c2nc2n3CCCCC2)C1 (stereo not drawn)
RP-LC retention time: 604 s

COc1cccc(Cn2nc3n(Cc4ccc(C)cc4)c(=O)c4nn(C)cc4n3c2=O)c1
RP-LC retention time: 935 s

CCCNC(=O)C1CC(=O)N(c2ccc3c(c2)CCN3C(C)=O)C1 (stereo not drawn)
RP-LC retention time: 621 s

COc1ccccc1-c1nnc(-c2ccc(C)c(S(=O)(=O)N3CCOCC3)c2)o1
RP-LC retention time: 867 s

CCn1cc(-c2ccc(Cl)cc2)cc1C(=O)NCc1ccncc1
RP-LC retention time: 720 s

O=C(CN1C(=O)CCCc2cc(S(=O)(=O)N3CCCCC3)ccc21)Nc1ccc(Cl)cc1F
RP-LC retention time: 995 s

CCC1Oc2ccc(S(=O)(=O)N3CCC(C(=O)Nc4ccc(C)cc4Cl)CC3)cc2NC1=O (stereo not drawn)
RP-LC retention time: 971 s

Cc1ccsc1-c1nnc(CC(=O)N2CCN(c3ccccc3)CC2)o1
RP-LC retention time: 872 s

CC1CCCN(c2nc(C(=O)NC(C)C)cs2)C1 (stereo not drawn)
RP-LC retention time: 1020 s

c1ccc2[nH]c(-c3ccncc3)nc2c1
RP-LC retention time: 624 s

Cc1noc(C)c1CN1CCC(NC(=O)c2ccc3cc[nH]c3c2)CC1
RP-LC retention time: 596 s

COCCn1cc(CCNC(=O)Nc2ccc(F)cc2F)c2cccnc21
RP-LC retention time: 729 s

CCOC(=O)C1CCN(C(=O)CCn2c(=O)oc3ccccc32)CC1
RP-LC retention time: 708 s

COc1ccc(-c2nc(N3CCC(C)CC3)c3ccccc3n2)cc1
RP-LC retention time: 860 s

CCOCC1CCC2(CCN(C(=O)Cn3c(=O)oc4cc(Cl)ccc43)CC2)O1 (stereo not drawn)
RP-LC retention time: 900 s

CCc1ccc(C2=C(C)C(N3CCCN(C(=O)C(C)C)CC3)=NS2(=O)=O)cc1
RP-LC retention time: 824 s

NC(=O)N1CCC(CC(=O)N2CCC([C@H]3c4ncc(Br)cc4CCc4cc(Cl)cc(Br)c43)CC2)CC1
RP-LC retention time: 1040 s

O=c1c2c(CO)c(-c3ccccc3)nn2ccn1Cc1ccccc1
RP-LC retention time: 896 s

CNC(=O)CCC[C@@H]1[C@H]2CCCN3CCC[C@@H](CN1C(=O)CC(C)C)[C@@H]23
RP-LC retention time: 568 s

CCN1C(=O)COc2ccc(-c3noc(COc4ccc(F)cc4)n3)cc21
RP-LC retention time: 1030 s

CCn1nccc1-c1cccc(-c2noc(CNC(=O)c3ccccc3)n2)c1
RP-LC retention time: 874 s

CCCCOc1ccc(C(=O)Nc2cccc3c2C(=O)NC3=O)cc1
RP-LC retention time: 1020 s

CCOc1ccc(NC(=O)Cn2c(=O)c(CCC(=O)NC3CCCC3)nc3ccccc32)cc1
RP-LC retention time: 860 s

O=C(NCCC1CCN(S(=O)(=O)c2ccccc2)CC1)NC1CCCCC1
RP-LC retention time: 865 s

CC(C)n1cc(S(=O)(=O)NCc2ccc(C(F)(F)F)cc2)c2cccnc21
RP-LC retention time: 974 s

O=c1ccn(-c2cccc(F)c2)nc1-c1nc(-c2cccc(F)c2)no1
RP-LC retention time: 906 s

O=C(NCCc1cccs1)c1ccc2ccnc(N3CCN(c4ccc(Cl)cc4)CC3)c2c1
RP-LC retention time: 931 s

CCc1noc(NC(C)=O)c1-c1ccc(OC)c(S(=O)(=O)Nc2cc(C)ccc2OC)c1
RP-LC retention time: 854 s

CCOC(=O)C1CCN(C(=O)C2CCN(c3ccc(N4CCCC4)nn3)CC2)CC1
RP-LC retention time: 628 s

Cc1ccc(NC(=O)C2CCCN(c3ncnc4c3oc3ccccc34)C2)cc1 (stereo not drawn)
RP-LC retention time: 825 s

Cc1cc2nn(CC(=O)Nc3cccc(Cl)c3)c(=O)n2c(Nc2ccccc2C)n1
RP-LC retention time: 1100 s

CCn1nc(N2CCCC(N)C2)ccc1=O (stereo not drawn)
RP-LC retention time: 497 s

Cc1cccn2cc(-c3cccc(NS(=O)(=O)c4ccc(Cl)c(Cl)c4)c3)nc12
RP-LC retention time: 747 s

CCOC(=O)Cc1csc(NC(=O)CSc2nnc(-c3ccncc3)o2)n1
RP-LC retention time: 632 s

Cc1ccccc1-c1nnc(CSc2nnc(NC(=O)CCc3ccccc3)s2)o1
RP-LC retention time: 977 s

Cc1sc2ccn(C)c(=O)c2c1C(=O)NCCN1CCc2ccccc2C1
RP-LC retention time: 687 s

COC(=O)c1c(C)[nH]c(C(=O)N2CCCC(C(=O)NCCCN3CCCCCC3)C2)c1C (stereo not drawn)
RP-LC retention time: 592 s

O=C(Nc1cccnc1)c1c2c(nc3ccccc13)C(=O)N(C1CCCCC1)C2
RP-LC retention time: 669 s

Cc1ccc(-c2nnc(-c3ccc(N4CCC(C)CC4)nc3)o2)cc1
RP-LC retention time: 1310 s

Cn1nnc2cc(C(=O)NCc3ccc4c(c3)OCO4)ccc21
RP-LC retention time: 686 s

O=C(COc1ccc2c3c(c(=O)oc2c1)CCC3)N[C@H](Cc1c[nH]c2ccccc12)C(=O)O
RP-LC retention time: 793 s

OC1CCC12CCN(Cc1cn[nH]c1-c1ccccc1)CC2 (stereo not drawn)
RP-LC retention time: 568 s

COC(=O)c1c(C)[nH]c(C(=O)N2CCC(CC(=O)NCCc3ccco3)CC2)c1C
RP-LC retention time: 683 s

O=C(CN1C(=O)CCc2cc(Br)ccc21)Nc1ccc2c(c1)OCO2
RP-LC retention time: 792 s

CC(C)(C)NC(=O)N1CCC(CNC(=O)C(=O)Nc2cc(F)ccc2F)CC1
RP-LC retention time: 811 s

CSc1ccc(-c2nc3nc(C)cc(C)n3c2Nc2c(C)cccc2C)cc1
RP-LC retention time: 808 s

O=C(Nc1nccn(-c2ccc(F)c(Cl)c2)c1=O)c1ccc2c(c1)OCO2
RP-LC retention time: 802 s

CC(=O)N(C)CC(=O)N1CCN(c2cc(C)nc(Nc3ccc(C)cc3)n2)CC1
RP-LC retention time: 564 s

CCN(CC)CCCNC(=O)C1CCCN(c2nnc(C)c3c(C)n(-c4ccc(Cl)cc4)nc23)C1 (stereo not drawn)
RP-LC retention time: 598 s

Cc1ccn2c(NC(=O)c3cccc(Br)c3)c(-c3ccccc3)nc2c1
RP-LC retention time: 715 s

CN(C)c1ccc(C(=O)NCC(=O)Nc2nc3ccccc3[nH]2)cc1
RP-LC retention time: 625 s

Cc1cc(Cl)ccc1OCc1nc(-c2ccc(NS(=O)(=O)c3cccs3)cc2)no1
RP-LC retention time: 1180 s

COc1cccc(CNC(=O)CCc2nc3c(C)cccc3c(=O)n2C)c1
RP-LC retention time: 801 s

COc1ccc(CN2CN=C(Nc3nc(C)c4cc(OC)ccc4n3)NC2)cc1
RP-LC retention time: 748 s

CC(C)N1C(=O)C(C)(C(=O)NC2CCCCC2)Oc2cccnc21 (stereo not drawn)
RP-LC retention time: 1010 s

Cc1ccc(C2Cn3cnc(C(=O)N4CCC(C(=O)NCc5ccccc5)CC4)c3CO2)cc1 (stereo not drawn)
RP-LC retention time: 796 s

Cc1nc(C)c(C(=O)NCC2Cn3cccc3C(=O)N2C)s1 (stereo not drawn)
RP-LC retention time: 594 s

CCOc1ccc(S(=O)(=O)N2CCc3c(c(-c4nnc(-c5ccc(F)cc5)o4)nn3C)C2)cc1
RP-LC retention time: 1000 s

Cc1nc(-c2noc(-c3ccncc3)n2)cn1CC(=O)Nc1ccc(F)cc1
RP-LC retention time: 833 s

Cc1[nH]c(C(=O)N2CCC(CC(=O)N3CCC(C)CC3)CC2)c(C)c1C(=O)OC(C)C
RP-LC retention time: 849 s

Cc1nn(-c2ccc(N3CCOCC3)nn2)c(C)c1CCC(=O)NCCC(C)C
RP-LC retention time: 672 s

COc1cc(Cl)ccc1-c1nc(C2CC(=O)N(c3ccc(C)cc3)C2)no1 (stereo not drawn)
RP-LC retention time: 1070 s

O=C(Cn1c(C(F)(F)F)nc2cc3c(cc21)OCCO3)Nc1ccc2c(c1)OCCCO2
RP-LC retention time: 836 s

CCN(CCN(C)C)c1ccc(C(=O)O)cc1NS(=O)(=O)c1cccc(C)c1
RP-LC retention time: 620 s

O=c1c2scc(-c3ccc(Br)cc3)c2ncn1Cc1ccc(F)cc1
RP-LC retention time: 1180 s

Cc1sc2ccn(Cc3ccc(F)cc3)c(=O)c2c1C(=O)NCCN1CCCC1
RP-LC retention time: 662 s

O=C(N[C@H]1C[C@@H]2C[C@H]1N(C(=O)c1ccc3c(c1)OCO3)C2)c1ccccc1
RP-LC retention time: 721 s
